ChEMBL document CHEMBL1130494, “Design and synthesis of a targeted set of aromatic amino acid derivatives for identification of new lead compounds” (Bioorg Med Chem Lett, 1997)
pIC50, pKi: −log10 of the molar value.

Columns and labels:
[1] = molecular target: Neuromedin-B receptor (Homo sapiens, UniProt P28336); assay: Binding affinity for human neuromedin B(hNMB) receptor expressed in CHO cells; format: cell-based
[2] = molecular target: T1, Substance-K receptor (Mesocricetus auratus, UniProt P51144); assay: Concentration required for binding affinity to neurokinin (NK2) receptor in hamster urinary bladder
T1 sequence (P51144 whole entry): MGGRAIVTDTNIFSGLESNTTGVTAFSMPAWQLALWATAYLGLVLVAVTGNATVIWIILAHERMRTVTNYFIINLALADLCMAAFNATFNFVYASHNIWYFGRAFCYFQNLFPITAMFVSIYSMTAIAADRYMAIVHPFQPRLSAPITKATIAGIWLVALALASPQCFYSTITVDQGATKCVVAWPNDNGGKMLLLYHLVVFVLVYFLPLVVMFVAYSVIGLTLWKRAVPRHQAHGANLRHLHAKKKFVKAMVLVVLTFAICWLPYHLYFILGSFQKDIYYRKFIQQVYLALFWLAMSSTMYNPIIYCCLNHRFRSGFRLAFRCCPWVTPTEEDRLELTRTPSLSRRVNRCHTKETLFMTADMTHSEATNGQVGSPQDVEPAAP

[3] = molecular target: T2, Neuromedin-K receptor (Homo sapiens, UniProt P29371); assay: Concentration required for binding affinity to Tachykinin receptor 3 in chinese hamster ovary cells; format: cell-based, CHO
T2 sequence (P29371 whole entry): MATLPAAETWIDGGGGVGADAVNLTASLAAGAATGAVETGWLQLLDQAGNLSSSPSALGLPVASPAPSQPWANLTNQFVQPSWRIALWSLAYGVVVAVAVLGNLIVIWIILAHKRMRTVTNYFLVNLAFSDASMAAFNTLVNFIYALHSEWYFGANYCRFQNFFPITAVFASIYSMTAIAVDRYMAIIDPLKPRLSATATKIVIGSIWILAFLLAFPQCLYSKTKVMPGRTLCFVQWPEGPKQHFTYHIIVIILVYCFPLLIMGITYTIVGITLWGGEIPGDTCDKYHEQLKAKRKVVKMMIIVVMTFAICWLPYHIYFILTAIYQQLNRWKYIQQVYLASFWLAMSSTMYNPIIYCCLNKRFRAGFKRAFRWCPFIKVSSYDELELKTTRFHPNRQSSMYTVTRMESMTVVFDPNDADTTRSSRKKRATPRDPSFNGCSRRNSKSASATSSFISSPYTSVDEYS

[4] = molecular target: T3, Gastrin/cholecystokinin type B receptor (Mus musculus, UniProt P56481); assay: Concentration required for binding affinity to neuropeptide (CCK-B) receptor in mouse cerebral cortex; format: tissue-based
T3 sequence (P56481 whole entry): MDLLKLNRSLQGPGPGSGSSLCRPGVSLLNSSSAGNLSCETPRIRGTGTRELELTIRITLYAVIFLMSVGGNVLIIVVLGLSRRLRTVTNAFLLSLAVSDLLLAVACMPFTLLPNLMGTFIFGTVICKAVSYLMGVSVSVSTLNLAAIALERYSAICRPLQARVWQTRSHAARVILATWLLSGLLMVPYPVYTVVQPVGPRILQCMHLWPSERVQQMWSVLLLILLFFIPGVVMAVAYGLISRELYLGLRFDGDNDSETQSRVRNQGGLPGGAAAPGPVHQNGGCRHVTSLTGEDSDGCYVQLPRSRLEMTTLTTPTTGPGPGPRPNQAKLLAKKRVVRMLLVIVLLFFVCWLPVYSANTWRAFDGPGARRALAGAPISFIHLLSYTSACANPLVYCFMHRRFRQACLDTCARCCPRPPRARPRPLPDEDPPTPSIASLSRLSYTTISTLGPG

[5] = molecular target: Substance-P receptor (Homo sapiens, UniProt P25103); assay: Concentration required for binding affinity to neurokinin (NK1) receptor in human IM9 cells; format: cell-based, IM-9
Sequence of Substance-P receptor (P25103 whole entry): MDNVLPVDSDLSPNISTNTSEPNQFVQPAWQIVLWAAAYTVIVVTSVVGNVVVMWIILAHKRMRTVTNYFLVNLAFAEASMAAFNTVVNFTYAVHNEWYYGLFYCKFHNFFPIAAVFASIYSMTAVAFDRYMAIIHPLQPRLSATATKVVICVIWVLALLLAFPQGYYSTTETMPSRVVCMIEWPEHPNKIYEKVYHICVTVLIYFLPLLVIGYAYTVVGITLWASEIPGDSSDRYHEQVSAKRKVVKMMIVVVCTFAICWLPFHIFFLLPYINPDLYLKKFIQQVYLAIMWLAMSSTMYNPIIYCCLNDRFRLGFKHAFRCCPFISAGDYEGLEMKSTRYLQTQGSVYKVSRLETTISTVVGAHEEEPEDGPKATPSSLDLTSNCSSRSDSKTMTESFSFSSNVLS

[6] = molecular target: T4, Cholecystokinin receptor type A (Rattus norvegicus, UniProt P30551); assay: Concentration required for binding affinity to neuropeptide (CCK-A) receptor in rat pancrea
T4 sequence (P30551 whole entry): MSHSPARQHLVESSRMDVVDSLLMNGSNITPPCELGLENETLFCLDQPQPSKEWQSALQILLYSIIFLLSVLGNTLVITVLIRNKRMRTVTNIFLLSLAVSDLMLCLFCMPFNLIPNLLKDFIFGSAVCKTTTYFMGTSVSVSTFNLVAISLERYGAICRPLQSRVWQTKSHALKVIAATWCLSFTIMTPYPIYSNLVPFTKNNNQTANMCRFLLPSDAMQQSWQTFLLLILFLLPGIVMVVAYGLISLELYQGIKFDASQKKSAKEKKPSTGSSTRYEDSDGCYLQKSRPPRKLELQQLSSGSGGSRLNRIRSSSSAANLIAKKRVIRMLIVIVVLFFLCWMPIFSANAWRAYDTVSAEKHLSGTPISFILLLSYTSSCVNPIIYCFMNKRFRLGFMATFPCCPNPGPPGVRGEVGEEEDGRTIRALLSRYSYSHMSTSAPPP

Sequence of Neuromedin-B receptor (P28336 whole entry): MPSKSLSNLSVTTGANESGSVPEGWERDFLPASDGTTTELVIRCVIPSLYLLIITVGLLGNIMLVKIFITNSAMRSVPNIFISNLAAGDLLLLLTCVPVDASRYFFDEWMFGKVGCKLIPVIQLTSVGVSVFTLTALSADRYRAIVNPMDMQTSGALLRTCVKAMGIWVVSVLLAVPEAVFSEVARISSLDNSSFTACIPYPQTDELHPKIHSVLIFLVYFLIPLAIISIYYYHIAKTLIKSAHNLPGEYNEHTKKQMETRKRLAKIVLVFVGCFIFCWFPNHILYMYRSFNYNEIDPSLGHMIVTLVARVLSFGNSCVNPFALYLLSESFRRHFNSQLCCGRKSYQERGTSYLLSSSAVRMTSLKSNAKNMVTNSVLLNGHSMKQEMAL

| pKi [1] | Structure (SMILES) | also measured |
| --- | --- | --- |
| 5.59 | O=C(NC(Cc1c[nH]c2ccccc12)C(=O)NCCc1ccccc1)OCc1cnc[nH]1 (stereo unspecified) | – |
| 5.57 | O=C(N[C@@H](Cc1c[nH]c2ccccc12)C(=O)NCCc1ccccc1)OCc1c[nH]cn1 | – |
| 7.43 | CC(C)CNC(=O)C(Cc1c[nH]c2ccccc12)NC(=O)OCc1cn(C(c2ccccc2)(c2ccccc2)c2ccccc2)cn1 (stereo unspecified) | – |
| 5.59 | O=C(N[C@@H](Cc1c[nH]c2ccccc12)C(=O)NCCc1ccccc1)OCc1ccccc1 | pIC50 [2]: 5.49 |
| 5.41 | CC(C)CCNC(=O)[C@H](Cc1c[nH]c2ccccc12)NC(=O)OCc1cnc[nH]1 | – |
| < 5.00 | CC(C)CNC(=O)[C@H](Cc1c[nH]c2ccccc12)NC(=O)OCC(C)C | – |
| < 5.00 | COC(=O)N[C@@H](Cc1c[nH]c2ccccc12)C(=O)NCCO | – |
| < 5.00 | O=C(O)CCNC(=O)[C@H](Cc1c[nH]c2ccccc12)NC(=O)OCCc1c[nH]c2ccccc12 | – |
| 5.43 | O=C(N[C@@H](Cc1c[nH]c2ccccc12)C(=O)NCCc1c[nH]c2ccccc12)OCc1c[nH]cn1 | – |
| < 5.00 | CC(C)COC(=O)N[C@@H](Cc1c[nH]c2ccccc12)C(=O)NCCO | – |
| < 5.00 | CC(C)CCNC(=O)[C@H](Cc1c[nH]c2ccccc12)NC(=O)OCC(C)C | – |
| 5.41 | CC(C)CCNC(=O)C(Cc1c[nH]c2ccccc12)NC(=O)OCc1c[nH]cn1 (stereo unspecified) | – |
| < 5.00 | COC(=O)N[C@@H](Cc1c[nH]c2ccccc12)C(=O)NCCc1c[nH]c2ccccc12 | – |
| < 5.00 | NCCCCCNC(=O)[C@H](Cc1c[nH]c2ccccc12)NC(=O)OCc1ccccc1 | – |
| < 5.00 | NCCCCOC(=O)N[C@@H](Cc1c[nH]c2ccccc12)C(=O)NCCO | – |
| < 5.00 | COC(=O)N[C@@H](Cc1c[nH]c2ccccc12)C(=O)NCCc1ccccc1 | – |
| 5.05 | NCCCCOC(=O)N[C@@H](Cc1c[nH]c2ccccc12)C(=O)NCCc1c[nH]c2ccccc12 | – |
| < 5.00 | CC(C)COC(=O)N[C@@H](Cc1c[nH]c2ccccc12)C(=O)NCCc1cnc[nH]1 | – |
| < 5.00 | CC(C)OC(=O)N[C@@H](Cc1c[nH]c2ccccc12)C(=O)NCCO | – |
| 6.01 | O=C(N[C@@H](Cc1c[nH]c2ccccc12)C(=O)NCCc1c[nH]c2ccccc12)OCCc1c[nH]c2ccccc12 | – |
| < 5.00 | NCCCCCNC(=O)[C@H](Cc1c[nH]c2ccccc12)NC(=O)OCC(=O)O | – |

| pKi [1] | Structure (SMILES) | also measured |
| --- | --- | --- |
| < 5.00 | O=C(O)COC(=O)N[C@@H](Cc1c[nH]c2ccccc12)C(=O)NCCc1c[nH]c2ccccc12 | – |
| < 5.00 | CC(C)CNC(=O)[C@H](Cc1c[nH]c2ccccc12)NC(=O)OCCCCN | – |
| < 5.00 | CC(C)OC(=O)N[C@@H](Cc1c[nH]c2ccccc12)C(=O)NCCc1c[nH]c2ccccc12 | pIC50 [3]: 5.03 |
| < 5.00 | O=C(O)COC(=O)N[C@@H](Cc1c[nH]c2ccccc12)C(=O)NCCO | – |
| < 5.00 | COC(=O)N[C@@H](Cc1c[nH]c2ccccc12)C(=O)NCCC(=O)O | – |
| < 5.00 | NCCCCOC(=O)N[C@@H](Cc1c[nH]c2ccccc12)C(=O)NCCc1ccccc1 | – |
| < 5.00 | CC(C)CCNC(=O)[C@H](Cc1c[nH]c2ccccc12)NC(=O)OC(C)C | – |
| < 5.00 | O=C(N[C@@H](Cc1c[nH]c2ccccc12)C(=O)NCCc1c[nH]cn1)OCc1ccccc1 | – |
| < 5.00 | NCCCCCNC(=O)[C@H](Cc1c[nH]c2ccccc12)NC(=O)OCCCCN | – |
| < 5.00 | CC(C)CCNC(=O)[C@H](Cc1c[nH]c2ccccc12)NC(=O)OCC(=O)O | – |
| < 5.00 | CC(C)OC(=O)N[C@@H](Cc1c[nH]c2ccccc12)C(=O)NCCCCCN | – |
| 5.21 | CC(C)CCNC(=O)[C@H](Cc1c[nH]c2ccccc12)NC(=O)OCc1ccccc1 | pIC50 [4]: 5.67 |
| < 5.00 | CC(C)CCNC(=O)[C@H](Cc1c[nH]c2ccccc12)NC(=O)OCCCCN | – |
| < 5.00 | CC(C)CNC(=O)[C@H](Cc1c[nH]c2ccccc12)NC(=O)OC(C)C | – |
| < 5.00 | O=C(N[C@@H](Cc1c[nH]c2ccccc12)C(=O)NCCO)OCCc1c[nH]c2ccccc12 | – |
| 5.46 | CC(C)CNC(=O)[C@H](Cc1c[nH]c2ccccc12)NC(=O)OCCc1c[nH]c2ccccc12 | – |
| 5.33 | CC(C)COC(=O)N[C@@H](Cc1c[nH]c2ccccc12)C(=O)NCCc1c[nH]c2ccccc12 | pIC50 [5]: 6.37 |
| < 5.00 | CC(C)COC(=O)N[C@@H](Cc1c[nH]c2ccccc12)C(=O)NCCCCCN | – |
| 5.96 | O=C(N[C@@H](Cc1c[nH]c2ccccc12)C(=O)NCCc1ccccc1)OCCc1c[nH]c2ccccc12 | – |
| < 5.00 | COC(=O)N[C@@H](Cc1c[nH]c2ccccc12)C(=O)NCCC(C)C | – |
| < 5.00 | NCCCCOC(=O)N[C@@H](Cc1c[nH]c2ccccc12)C(=O)NCCc1cnc[nH]1 | – |

| pKi [1] | Structure (SMILES) | also measured |
| --- | --- | --- |
| < 5.00 | CC(C)OC(=O)N[C@@H](Cc1c[nH]c2ccccc12)C(=O)NCCc1c[nH]cn1 | – |
| < 5.00 | CC(C)CNC(=O)[C@H](Cc1c[nH]c2ccccc12)NC(=O)OCc1ccccc1 | – |
| < 5.00 | COC(=O)N[C@@H](Cc1c[nH]c2ccccc12)C(=O)NCC(C)C | – |
| < 5.00 | COC(=O)N[C@@H](Cc1c[nH]c2ccccc12)C(=O)NCCCCCN | – |
| 5.55 | O=C(N[C@@H](Cc1c[nH]c2ccccc12)C(=O)NCCc1c[nH]c2ccccc12)OCc1ccccc1 | pIC50 [6]: 6.35 |
| < 5.00 | O=C(O)COC(=O)N[C@@H](Cc1c[nH]c2ccccc12)C(=O)NCCc1ccccc1 | – |
| < 5.00 | O=C(O)CCNC(=O)[C@H](Cc1c[nH]c2ccccc12)NC(=O)OCc1ccccc1 | – |
| 5.57 | CC(C)CCNC(=O)[C@H](Cc1c[nH]c2ccccc12)NC(=O)OCCc1c[nH]c2ccccc12 | – |
| 5.11 | NCCCCCNC(=O)[C@H](Cc1c[nH]c2ccccc12)NC(=O)OCCc1c[nH]c2ccccc12 | – |
| < 5.00 | O=C(N[C@@H](Cc1c[nH]c2ccccc12)C(=O)NCCO)OCc1ccccc1 | – |
| < 5.00 | CC(C)OC(=O)N[C@@H](Cc1c[nH]c2ccccc12)C(=O)NCCc1ccccc1 | – |
| 5.30 | O=C(N[C@@H](Cc1c[nH]c2ccccc12)C(=O)NCCc1c[nH]cn1)OCCc1c[nH]c2ccccc12 | – |
| < 5.00 | CC(C)CNC(=O)[C@H](Cc1c[nH]c2ccccc12)NC(=O)OCC(=O)O | – |
| < 5.00 | CC(C)CNC(=O)[C@H](Cc1c[nH]c2ccccc12)NC(=O)OCc1c[nH]cn1 | – |
| < 5.00 | COC(=O)N[C@@H](Cc1c[nH]c2ccccc12)C(=O)NCCc1cnc[nH]1 | – |
| < 5.00 | CC(C)OC(=O)N[C@@H](Cc1c[nH]c2ccccc12)C(=O)NCCC(=O)O | – |
| 5.37 | CC(C)COC(=O)N[C@@H](Cc1c[nH]c2ccccc12)C(=O)NCCc1ccccc1 | – |
| < 5.00 | CC(C)COC(=O)N[C@@H](Cc1c[nH]c2ccccc12)C(=O)NCCC(=O)O | – |
| < 5.00 | NCCCCOC(=O)N[C@@H](Cc1c[nH]c2ccccc12)C(=O)NCCC(=O)O | – |
